Here are results for one compound from patent publication US20250228858A1, “ANTI-CANCER COMBINATION THERAPY” (Boehringer Ingelheim International GmbH, priority 2023, published 2025).

The subject of experiment [1] is parental NCI-N87 cells. The experiment can be described thus: Proliferation assay (CellTiter Glo), parental NCI-N87 cells. Type of experiment: cell-based, human. The conditions noted are these: 5 days of incubation, in vitro. As to the method:
Per well, 1000 cells are seeded in 40 μL medium in white, sterile 384-well culture plates (TC-treated; PerkinElmer #6007680) and incubated overnight in a humidified incubator at 37° C. and 5% CO2. 0.1% DMSO-control or serial compound dilution in triplicates are added. […] After 5 days of incubation with test compounds, the cells plates are measured upon addition of CellTiter Glo Luminescent Cell Viability Reagent (Promega, #G9243) to assess cell viability. The plates are placed on a shaker for five minutes and additionally incubated for 10 minutes at room temperature to induce cell lysis and to stabilize the luminescent signal. The luminescent signal of each well is measured in an EnSpire Multilabel Plate Reader 658 (PerkinElmer). The dose response curves are fit and visualized using Boehringer Ingelheim's proprietary software MegaLab and PRISM (GraphPad Inc.).

Experiment [2] relates to HER2-overexpressing human NSCLC cell line NCI-H2170. The experiment is described as follows: NCI-H2170 subcutaneous xenograft, zongertinib with T-DXd. Type of experiment: in vivo, NMRI-Foxn1^nu mice. The following applies: day 21, alone or combined; for Regressions >30%: tumors regressed/total (partial response). As to the method:
The study is performed in human NSCLC cell line NCI-H2170 grown as subcutaneous xenografts in NMRI-Foxn1^nu mice. Day 1 was the first day, day 21 the last day of treatment and final day of analysis.
NCI-H2170 is a HER2-overexpressing NSCLC cell line that can be obtained from the American Type Culture Collection (ATCC #CRL-5928; original vial lot: 4419196). Cells are cultured in T175 tissue culture flasks at 37° C. and 5% CO2. The medium used is RPMI 1640 (ATCC #30-2001) supplemented with 10% fetal bovine serum (FBS) (Gibco #26140079). Cultures are split twice weekly with a ratio of 1:3-1:9.
To establish subcutaneous tumors, NCI-H2170 cells are harvested by centrifugation, washed and resuspended in PBS+5% FCS at 1×10^7 cells/ml. 100 μl cell suspension containing 1×10^6 cells are injected subcutaneously into the right flank of the mice (1 site per mouse).
Tumor volumes and side effects are monitored as described in Example 1 (see paragraph 1.1.6), except that control animals are sacrificed when the median tumor volume of the group reaches a size of approximately 1000 mm^3.
(§1) The statistical evaluation of the tumor volume and the body weight is conducted on day 21 (last day of the study). Apart from this, statistical analysis was performed as described in Example 1 (see paragraph 1.1.7), with no evaluation of tumor growth after stop of treatment.

Experiment [3] deals with HER2-overexpressing human NSCLC cell line Calu-3. The experiment can be described thus: Calu-3 subcutaneous xenograft, zongertinib with trastuzumab and/or pertuzumab. It is filed as in vivo, CB-17/Icr-Prkdc^scid mice. The following applies: day 42, zongertinib 20 mg/kg qdx42 p.o., trastuzumab 20 mg/kg q7dx6 i.p., pertuzumab 20 mg/kg q7dx6 i.p., alone or combined. As to the method: The study is performed in human NSCLC cell line Calu-3 grown as subcutaneous xenografts in CB-17/Icr-Prkdc^scid mice. Day 1 was the first day, day 42 the last day of treatment and final day of analysis.
Calu-3 is a HER2-overexpressing human NSCLC cell line that can be obtained from ATCC (lot 614492062). Cells are cultured in T75, T175 and 5-Layer tissue culture flasks at 37° C. and 5% CO2. The medium used is EMEM (Lonza BE12-662F) supplemented with 10% FCS (Cytiva HyClone Characterized FBS, SH30084.03n), 2 mM Glutamax (Gibco 35050-038), 0.5 mM sodium pyruvate (Sigma S8636). Cultures are split once weekly with a ratio of 1:1.5-1:2.
To establish subcutaneous tumors, Calu-3 cells are harvested by centrifugation, washed and resuspended in PBS+5% FCS at 7×10^7 cells/ml. 50 μl cell suspension containing 3.5×10^6 cells is injected subcutaneously into the right flank of mice (1 site per mouse).
Mice in the control group are treated with vehicle, i.e.: • (i) 0.5% Natrosol, administered once daily for the duration of the treatment intragastrally by gavage needle with a volume of 10 ml/kg body weight; and • (ii) saline (0.9%), administered once every week intraperitoneally with a volume of 10 ml/kg.
Tumor volumes and side effects are monitored as described in Example 1 (see paragraph 1.1.6).
as §1

Setting [4] is: zongertinib 20 mg/kg qdx21 p.o., T-DXd 3 mg/kg q21dx1 i.v.

As for `C=CC(=O)NC1CCN(c2ncc3ncnc(Nc4ccc(Oc5ccc6c(c5)ncn6C)c(C)c4)c3n2)CC1` [Zongertinib, N-{1-[8-({3-methyl-4-[(1-methyl-1H-1,3-benzodiazol-5-yl)oxy]phenyl}amino)-[1,3]diazino [5,4-d]pyrimidin-2-yl]piperidin-4-yl}prop-2-enamide], in experiment [1], the “sensitivity (dose response, cell viability)” value is reported as “sensitive”. For the same compound, the stable disease in experiment [2] (number of tumors out of 8, zongertinib 20 mg/kg qdx21, T-DXd 3 mg/kg q21dx1) came out at 1. In addition, the “Regressions >30%” value in experiment [2] (setting [4]) is 0/8; in experiment [2] (zongertinib 20 mg/kg qdx21 p.o., T-DXd 3 mg/kg q21dx1 i.v., listed as zongertinib), “no partial responses”; in experiment [3] (tumors regressed/total (partial response)), 0/10. In addition, the TGI in experiment [2] (setting [4]) was found to be 89%; in experiment [3] it was 64%.
